Several values for one entry are separate records, joined by “and”; a condition that tells them apart may be missing. Equal entries are not always repeated. Records with an inconclusive call do not appear.
Tested on: CD8F1 mice, subcutaneous mammary adenocarcinoma, T/C%
Assay: NCI In Vivo Anticancer Drug Screen. Data for tumor model Mammary Adenocarcinoma CD8F1 (subcutaneous) in CD8F1
Settings: higher = larger tumour
Protocol: The antitumor activity of compounds was measured in mice bearing transplantable tumors. Survival or tumor size were measured and the results are expressed as the measurement made in the treated group (T) divided by the measurement made in the vehicle treated control group (C). The tumor model used in this assay is Mammary Adenocarcinoma CD8F1 (subcutaneous) in CD8F1

[1] = endpoint: median tumor weight change, dose: 125.0 mg/kg/injection, schedule: Q01DX001 (ip), vehicle: saline
[2] = endpoint: median tumor weight change, dose: 250.0 mg/kg/injection, schedule: Q01DX001 (ip), vehicle: saline
[3] = endpoint: median tumor weight (est.), dose: 25.0 mg/kg/injection, schedule: Q07DX005 (ip), vehicle: Klucel (hydroxypropylcellulose) (HPC)
[4] = endpoint: median tumor weight (est.), dose: 50.0 mg/kg/injection, schedule: Q07DX005 (ip), vehicle: Klucel (hydroxypropylcellulose) (HPC)
[5] = endpoint: median tumor weight (est.), dose: 100.0 mg/kg/injection, schedule: Q07DX005 (ip), vehicle: saline
[6] = endpoint: median tumor weight (est.), dose: 200.0 mg/kg/injection, schedule: Q07DX005 (ip), vehicle: saline

C[C@]12CC[C@H](O)CC1=CC[C@@H]1[C@@H]2CC[C@]2(C)C(=O)CC[C@@H]12
T/C (endpoint: median tumor weight change, dose: 62.5 mg/kg/injection, schedule: Q01DX001 (ip), vehicle: saline with Tween-80): 115 % of control | T/C (endpoint: median tumor weight change, dose: 250.0 mg/kg/injection, schedule: Q01DX001 (ip), vehicle: saline with Tween-80): 104 % of control | T/C (endpoint: median tumor weight change, dose: 500.0 mg/kg/injection, schedule: Q01DX001 (ip), vehicle: saline with Tween-80): 90 % of control | T/C (endpoint: median tumor weight change, dose: 1000.0 mg/kg/injection, schedule: Q01DX001 (ip), vehicle: saline with Tween-80): 70 % of control

C=C(C)/C([O-])=N/[N+](C)(C)CC(O)CCCCCCCCCCCC (stereo not drawn)
T/C [1]: 63 % of control | T/C [2]: 111 % of control

Cc1cc(C)c(-c2cc(O)c(C)cc2O)c(C)c1
T/C (endpoint: median tumor weight (est.), dose: 12.5 mg/kg/injection, schedule: Q07DX005 (ip), vehicle: Klucel (hydroxypropylcellulose) (HPC)): 56 % of control | T/C [3]: 150 % of control and 267 % of control | T/C [4]: 81 % of control | T/C (endpoint: median tumor weight (est.), dose: 200.0 mg/kg/injection, schedule: Q07DX005 (ip), vehicle: Klucel (hydroxypropylcellulose) (HPC)): 71 % of control | T/C (endpoint: median tumor weight (est.), dose: 400.0 mg/kg/injection, schedule: Q07DX005 (ip), vehicle: Klucel (hydroxypropylcellulose) (HPC)): 28 % of control

Cc1cc2c(C(C)C)c(O)c(O)c(C=O)c2c(O)c1-c1c(C)cc2c(C(C)C)c(O)c(O)c(C=O)c2c1O
T/C (endpoint: median tumor weight change, dose: 31.25 mg/kg/injection, schedule: Q01DX001 (ip), vehicle: saline with Tween-80): 65 % of control

CCCCCn1c(C)cc(/C=C\c2ccc3cc(C)ccc3[n+]2C)c1C
T/C (endpoint: median tumor weight (est.), dose: 39.0 micrograms/kg/injection, schedule: Q07DX005 (ip), vehicle: Klucel (hydroxypropylcellulose) (HPC)): 87 % of control | T/C (endpoint: median tumor weight (est.), dose: 78.0 micrograms/kg/injection, schedule: Q07DX005 (ip), vehicle: Klucel (hydroxypropylcellulose) (HPC)): 72 % of control | T/C (endpoint: median tumor weight (est.), dose: 156.0 micrograms/kg/injection, schedule: Q07DX005 (ip), vehicle: Klucel (hydroxypropylcellulose) (HPC)): 76 % of control | T/C (endpoint: median tumor weight (est.), dose: 312.0 micrograms/kg/injection, schedule: Q07DX005 (ip), vehicle: Klucel (hydroxypropylcellulose) (HPC)): 111 % of control | T/C (endpoint: median tumor weight (est.), dose: 625.0 micrograms/kg/injection, schedule: Q07DX005 (ip), vehicle: Klucel (hydroxypropylcellulose) (HPC)): 107 % of control

CCCCCCCCCCCCCCCCS(=O)CC(O)COC(=O)c1ccc(C(=O)OCC(O)CS(=O)CCCCCCCCCCCCCCCC)cc1 (stereo not drawn)
T/C (endpoint: median tumor weight (est.), dose: 12.5 mg/kg/injection, schedule: Q07DX005 (ip), vehicle: saline + Tween-80 + alcohol): 68 % of control and 88 % of control | T/C (endpoint: median tumor weight (est.), dose: 25.0 mg/kg/injection, schedule: Q07DX005 (ip), vehicle: saline + Tween-80 + alcohol): 69 % of control and 79 % of control | T/C (endpoint: median tumor weight (est.), dose: 200.0 mg/kg/injection, schedule: Q07DX005 (ip), vehicle: saline + Tween-80 + alcohol): 48 % of control and 64 % of control | T/C (endpoint: median tumor weight (est.), dose: 400.0 mg/kg/injection, schedule: Q07DX005 (ip), vehicle: saline + Tween-80 + alcohol): 78 % of control and 84 % of control

CCC(=O)O[C@H]1CC[C@H]2[C@@H]3CCC4=CC(=O)CC[C@]4(C)[C@H]3CC[C@]12C
T/C (endpoint: median tumor weight (est.), dose: 160.0 mg/kg/injection, schedule: Q07DX005 (ip), vehicle: Klucel (hydroxypropylcellulose) (HPC)): 99 % of control | T/C (endpoint: median tumor weight (est.), dose: 640.0 mg/kg/injection, schedule: Q07DX005 (ip), vehicle: Klucel (hydroxypropylcellulose) (HPC)): 48 % of control

O=C1OC(=O)[C@H]2[C@@H]1[C@H]1C=C[C@@H]2OC1=O
T/C [1]: 154 % of control | T/C [2]: 98 % of control | T/C (endpoint: median tumor weight change, dose: 500.0 mg/kg/injection, schedule: Q01DX001 (ip), vehicle: saline): 91 % of control | T/C (endpoint: median tumor weight change, dose: 1000.0 mg/kg/injection, schedule: Q01DX001 (ip), vehicle: saline): 95 % of control | T/C (endpoint: median tumor weight change, dose: 2000.0 mg/kg/injection, schedule: Q01DX001 (ip), vehicle: saline): 40 % of control

Nc1ncnc2c1nnn2C1OC(CO)C(O)C1O (stereo not drawn)
T/C (endpoint: median tumor weight change, dose: 62.5 mg/kg/injection, schedule: Q01DX001 (ip), vehicle: Klucel (hydroxypropylcellulose) (HPC)): 111 % of control | T/C (endpoint: median tumor weight change, dose: 250.0 mg/kg/injection, schedule: Q01DX001 (ip), vehicle: Klucel (hydroxypropylcellulose) (HPC)): 39 % of control and 40 % of control

CC(=O)OC1COC(NC(=O)N(CCCl)N=O)C(OC(C)=O)C1OC(C)=O (stereo not drawn)
T/C (endpoint: median tumor weight (est.), dose: 1.5 mg/kg/injection, schedule: Q07DX004 (ip), vehicle: saline with Tween-80): 32 % of control | T/C (endpoint: median tumor weight (est.), dose: 3.0 mg/kg/injection, schedule: Q07DX004 (ip), vehicle: saline with Tween-80): 103 % of control | T/C (endpoint: median tumor weight (est.), dose: 6.0 mg/kg/injection, schedule: Q07DX004 (ip), vehicle: saline with Tween-80): 35 % of control | T/C (endpoint: median tumor weight (est.), dose: 6.0 mg/kg/injection, schedule: Q07DX005 (ip), vehicle: saline with Tween-80): 103 % of control | T/C (endpoint: median tumor weight (est.), dose: 12.0 mg/kg/injection, schedule: Q07DX005 (ip), vehicle: saline with Tween-80): 68 % of control | T/C (endpoint: median tumor weight (est.), dose: 24.0 mg/kg/injection, schedule: Q07DX005 (ip), vehicle: saline with Tween-80): 46 % of control

[Cl][Sn]([c]1ccccc1)[c]1ccccc1
T/C (endpoint: median tumor weight change, dose: 1.56 mg/kg/injection, schedule: Q01DX001 (ip), vehicle: saline): 81 % of control | T/C (endpoint: median tumor weight change, dose: 3.12 mg/kg/injection, schedule: Q01DX001 (ip), vehicle: saline): 63 % of control | T/C (endpoint: median tumor weight change, dose: 6.25 mg/kg/injection, schedule: Q01DX001 (ip), vehicle: saline): 94 % of control | T/C (endpoint: median tumor weight change, dose: 12.5 mg/kg/injection, schedule: Q01DX001 (ip), vehicle: saline): 81 % of control | T/C (endpoint: median tumor weight change, dose: 25.0 mg/kg/injection, schedule: Q01DX001 (ip), vehicle: saline): 78 % of control | T/C (endpoint: median tumor weight change, dose: 25.0 mg/kg/injection, schedule: Q01DX001 (ip), vehicle: water): 47 % of control

CN(Cc1cnc2nc(N)nc(N)c2n1)c1c(Cl)cc(C(=O)NC(CCC(=O)O)C(=O)O)cc1Cl (stereo not drawn)
T/C [3]: 72 % of control and 82 % of control | T/C [4]: 53 % of control and 65 % of control

O=[N+]([O-])O.O=[N+]([O-])O.[NH-]C1CCCCC1[NH-].[Pt+2] (stereo not drawn)
T/C (endpoint: median tumor weight (est.), dose: 0.5 mg/kg/injection, schedule: Q07DX005 (ip), vehicle: dextrose): 46 % of control and 52 % of control | T/C (endpoint: median tumor weight (est.), dose: 2.0 mg/kg/injection, schedule: Q07DX005 (ip), vehicle: dextrose): 50 % of control | T/C (endpoint: median tumor weight (est.), dose: 4.0 mg/kg/injection, schedule: Q07DX005 (ip), vehicle: dextrose): 29 % of control and 38 % of control | T/C (endpoint: median tumor weight (est.), dose: 8.0 mg/kg/injection, schedule: Q07DX005 (ip), vehicle: dextrose): 12 % of control and 29 % of control

CC(C)=CCNc1ncnc2c1ncn2C1OC(CO)C(O)C1O (stereo not drawn)
T/C (endpoint: median tumor weight (est.), dose: 12.5 mg/kg/injection, schedule: Q07DX005 (ip), vehicle: saline with Tween-80): 78 % of control | T/C (endpoint: median tumor weight (est.), dose: 25.0 mg/kg/injection, schedule: Q07DX005 (ip), vehicle: saline with Tween-80): 84 % of control | T/C (endpoint: median tumor weight (est.), dose: 50.0 mg/kg/injection, schedule: Q07DX005 (ip), vehicle: saline with Tween-80): 113 % of control | T/C (endpoint: median tumor weight (est.), dose: 100.0 mg/kg/injection, schedule: Q07DX005 (ip), vehicle: saline with Tween-80): 85 % of control | T/C (endpoint: median tumor weight (est.), dose: 200.0 mg/kg/injection, schedule: Q07DX005 (ip), vehicle: saline with Tween-80): 82 % of control

Nc1nc(N)c2c(ccc3c2ccn3Cc2cccc([N+](=O)[O-])c2)n1
T/C (endpoint: median tumor weight change, dose: 7.75 mg/kg/injection, schedule: Q01DX001 (ip), vehicle: saline with Tween-80): 66 % of control | T/C (endpoint: median tumor weight change, dose: 8.0 mg/kg/injection, schedule: Q01DX001 (ip), vehicle: saline with Tween-80): 56 % of control | T/C (endpoint: median tumor weight change, dose: 16.0 mg/kg/injection, schedule: Q01DX001 (ip), vehicle: saline with Tween-80): 67 % of control

CC1(C)OC(=O)N(CO)C1=O
T/C (endpoint: median tumor weight (est.), dose: 12.5 mg/kg/injection, schedule: Q07DX005 (ip), vehicle: saline): 52 % of control | T/C (endpoint: median tumor weight (est.), dose: 25.0 mg/kg/injection, schedule: Q07DX005 (ip), vehicle: saline): 73 % of control | T/C (endpoint: median tumor weight (est.), dose: 50.0 mg/kg/injection, schedule: Q07DX005 (ip), vehicle: saline): 9 % of control | T/C [5]: 110 % of control | T/C [6]: 104 % of control

O=C(O)CP(=O)(O)O
T/C [5]: 90 % of control | T/C [6]: 97 % of control | T/C (endpoint: median tumor weight (est.), dose: 400.0 mg/kg/injection, schedule: Q07DX005 (ip), vehicle: saline): 57 % of control | T/C (endpoint: median tumor weight (est.), dose: 800.0 mg/kg/injection, schedule: Q07DX005 (ip), vehicle: saline): 79 % of control

Nc1c(Cl)c(Cl)nc(C(=O)O)c1Cl
T/C (endpoint: mean tumor weight, dose: 6.25 mg/kg/injection, schedule: Q01DX015 (ip), vehicle: saline): 114 % of control | T/C (endpoint: mean tumor weight, dose: 6.25 mg/kg/injection, schedule: Q07DX007 (ip), vehicle: saline): 94 % of control | T/C (endpoint: mean tumor weight, dose: 12.5 mg/kg/injection, schedule: Q01DX015 (ip), vehicle: saline): 102 % of control | T/C (endpoint: mean tumor weight, dose: 12.5 mg/kg/injection, schedule: Q07DX007 (ip), vehicle: saline): 102 % of control | T/C (endpoint: mean tumor weight, dose: 25.0 mg/kg/injection, schedule: Q01DX015 (ip), vehicle: saline): 124 % of control | T/C (endpoint: mean tumor weight, dose: 25.0 mg/kg/injection, schedule: Q07DX007 (ip), vehicle: saline): 83 % of control | T/C (endpoint: mean tumor weight, dose: 200.0 mg/kg/injection, schedule: Q07DX006 (ip), vehicle: saline): 64 % of control | T/C (endpoint: mean tumor weight, dose: 300.0 mg/kg/injection, schedule: Q07DX006 (ip), vehicle: saline): 168 % of control

— PubChem BioAssay AID220 (DTP/NCI, 2004)
